This note sets out measurements from paper PMC8498988, “Scaffold Hybridization Strategy Leads to the Discovery of Dopamine D3 Receptor-Selective or Multitarget Bitopic Ligands Potentially Useful for Central Nervous System Disorders” (ACS Chemical Neuroscience, 2021).

For orientation: Ki means the dissociation constant of the complex between target and ligand, obtained from inhibition or displacement. The IC50 is the concentration that gives 50% inhibition. A low value points to greater potency.

The structures appear in SMILES notation.

The target in test [1] is T1, D4R (Homo sapiens, UniProt P21917).
T1 sequence (P21917 1-419): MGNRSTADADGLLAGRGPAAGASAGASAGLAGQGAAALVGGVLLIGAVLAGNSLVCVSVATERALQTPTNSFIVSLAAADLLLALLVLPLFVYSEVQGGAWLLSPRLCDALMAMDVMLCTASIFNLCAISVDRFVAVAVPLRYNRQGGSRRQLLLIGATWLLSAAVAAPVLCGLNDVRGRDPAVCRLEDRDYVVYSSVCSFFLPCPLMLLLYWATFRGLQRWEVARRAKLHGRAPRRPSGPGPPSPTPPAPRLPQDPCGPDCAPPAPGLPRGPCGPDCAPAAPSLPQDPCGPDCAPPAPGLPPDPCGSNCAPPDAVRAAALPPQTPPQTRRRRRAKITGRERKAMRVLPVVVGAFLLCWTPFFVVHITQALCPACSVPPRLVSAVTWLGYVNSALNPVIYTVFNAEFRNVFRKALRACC
Description: Radioligand competition binding at human D4R ([3H]N-methylspiperone, HEK293 membranes). On the set-up: expressed in transfected cells; host or cells: HEK293. As to conditions: HEK 293 cells expressing hD4R, read-out: Ki ± SEM, D4R. The protocol: (§1) The novel hybrid derivatives 3–11 were tested at hD2R, hD3R, or hD4R stably expressed in HEK293 cells by competition binding assays, using [^3H]N-methylspiperone as the radioligand, to evaluate their D2-like affinity and subtype selectivity, following the previously reported procedures.[41],[45],[46]
(§2) Binding at dopamine D2-like receptors was determined using previously described methods.[41],[45],[46] Membranes were prepared from HEK293 cells stably expressing human D2, D3, or D4, grown in a 50:50 mix of Dulbecco’s minimal essential medium (DMEM) and Ham’s F12 culture media, supplemented with 20 mM HEPES, 2 mM L-glutamine, 0.1 mM nonessential amino acids, 1× antibiotic/antimycotic, 10% heat-inactivated fetal bovine serum, and 200 μg/mL hygromycin (Life Technologies, Grand Island, NY) and kept in an incubator at 37 °C and 5% CO2. Upon reaching 80–90% confluency, the cells were harvested using premixed Earle’s Balanced Salt Solution (EBSS) with 5 μM EDTA (Life Technologies) and centrifuged at 3000 rpm for 10 min at 21 °C. The supernatant was removed, and the pellet was resuspended in 10 mL hypotonic lysis buffer (5 mM MgCl2, 5 mM Tris, pH 7.4 at 4 °C) and centrifuged at 20,000 rpm for 30 min at 4 °C. The pellet was then resuspended in fresh EBSS buffer made from 8.7 g/L Earle’s Balanced Salts without phenol red (US Biological, Salem, MA), 2.2 g/L sodium bicarbonate, pH to 7.4. A Bradford protein assay (Bio-Rad, Hercules, CA) was used to determine the protein concentration, and membranes were diluted to 500 μg/mL and stored at −80 °C for later use. Radioligand competition binding experiments were conducted using thawed membranes. Test compounds were freshly dissolved in 30% DMSO and 70% H2O to a stock concentration of 100 μM. To assist the solubilization of free-base compounds, 10 μL of glacial acetic acid was added along with DMSO. Each test compound was then diluted into 13 half-log serial dilutions using 30% DMSO vehicle; the final test concentrations ranged from 10 μM to 10 pM. The previously frozen membranes were diluted in fresh EBSS to a 100 μg/mL (for D2 or D3) or 200 μg/mL (D4) stock for binding. Radioligand competition experiments were conducted in glass tubes containing 300 μL of fresh EBSS buffer, 50 μL of diluted test compound, 100 μL of membranes (10 μg of total protein for D2 or D3 and 20 μg of total protein for D4), and 50 μL of [^3H]N-methylspiperone (0.4 nM final concentration; PerkinElmer). Nonspecific binding was determined using 10 μM butaclamol (Sigma-Aldrich, St. Louis, MO), and total binding was determined with the 30% DMSO vehicle. All compound dilutions were tested in triplicate and the reaction was incubated for 1 h at room temperature. The reaction was terminated by filtration through Whatman GF/B filters, presoaked for 1 h in 0.5% polyethylenimine, using a Brandel R48 filtering manifold (Brandel Instruments, Gaithersburg, MD). The filters were washed three times with 3 mL of ice-cold EBSS buffer and transferred to scintillation vials. CytoScint liquid scintillation cocktail (3 mL, MP Biomedicals, Solon, OH) was added, and vials were counted using a PerkinElmer Tri-Carb 2910 TR liquid scintillation counter (Waltham, MA).
For orientation: Loss of bound radioactivity is the signal in a displacement assay; it reports binding, not function.

Test [2] has as its target T2, D2R (Homo sapiens, UniProt P14416). Description: D2 mitogenesis functional assay (CHOp-D2 cells). Conditions: for IC50 / % inhib., D2 mitogenesis assay: antagonist mode; for IC50: inhibition of quinpirole stimulation of mitogenesis; for % inhib., D2 mitogenesis assay: standard antagonist (+)-butaclamol; for functional behavior at D2R: in words. Format: cell-based. On the set-up: expressed in transfected cells; host or cells: CHOp-D2 cells. As to the method: CHOp-D2 and CHOp-D3 cells are maintained in α-MEM with 10% fetal bovine serum (FBS, Atlas Biologicals), 0.05% pen-strep, and 400 μg/mL of G418. […] The cells are incubated at 37 °C in α-MEM with 10% FBS. After 48–72 h, the cells are rinsed twice with serum-free α-MEM and incubated for 24 h at 37 °C. Serial dilutions of test compounds are made by the Biomek robotics system in serum-free α-MEM. In the functional assay for agonists, the medium is removed and replaced with 100 μL of test compound in serum-free α-MEM. In the antagonist assay, the serial dilution of the putative antagonist test compound is added in 90 μL (1.1× of final concentration) and 300 nM quinpirole (30 nM final) is added in 10 μL. After another 24 h (D2) or 16 h (D3) incubation at 37 °C, 0.25 μCi of [^3H]thymidine in αMEM supplemented with 10% FBS is added to each well, and the plates are further incubated for 2 h at 37 °C. The cells are trypsinized by addition of 10× trypsin solution (1% trypsin in calcium–magnesium-free phosphate-buffered saline), and the plates are filtered and counted as usual. Quinpirole is run each day as an internal control, and dopamine is included for comparative purposes.

Test [3] deals with T2, D2R. The test is described as follows: Radioligand competition binding at human D2R ([3H]N-methylspiperone, HEK293 membranes). On the set-up: expressed in transfected cells; host or cells: HEK293. As to conditions: HEK 293 cells expressing hD2R, read-out: Ki ± SEM, D2R. As to the method:
as §1, §2

T2 sequence (P14416 whole entry): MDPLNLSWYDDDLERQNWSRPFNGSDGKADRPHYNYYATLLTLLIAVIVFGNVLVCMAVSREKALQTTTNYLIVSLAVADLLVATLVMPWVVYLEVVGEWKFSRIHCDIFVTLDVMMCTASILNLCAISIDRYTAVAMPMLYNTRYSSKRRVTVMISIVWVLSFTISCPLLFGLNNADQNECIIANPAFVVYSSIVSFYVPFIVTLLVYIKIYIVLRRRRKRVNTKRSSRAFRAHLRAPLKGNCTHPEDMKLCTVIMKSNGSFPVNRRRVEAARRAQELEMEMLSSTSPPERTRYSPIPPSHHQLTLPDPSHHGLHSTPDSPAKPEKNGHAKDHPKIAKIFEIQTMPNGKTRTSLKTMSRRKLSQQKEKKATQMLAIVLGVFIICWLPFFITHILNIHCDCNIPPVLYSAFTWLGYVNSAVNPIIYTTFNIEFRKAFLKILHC

On to `O=C(NCCCCN1CCN(c2cccc(Cl)c2Cl)CC1)C1COCC(c2ccccc2)(c2ccccc2)O1` (stereo not drawn) [compound 3, N-(4-(4-(2,3-Dichlorophenyl)piperazin-1-yl)butyl)-6,6-diphenyl-1,4-dioxane-2-carboxamide], for which the Ki in test [1] came out at 1.35 ± 0.449 µM. For the same compound, in test [2], half-maximal inhibition (IC50) required 0.139 µM; the “% inhib., D2 mitogenesis assay” value is reported as “(93.5) %”; the “functional behavior at D2R” value was “weak D2R antagonist”. In test [3], the Ki turned out to be 0.342 ± 0.105 µM.
Consider `O=C(NCCCCN1CCN(c2cccc(Cl)c2Cl)CC1)C1COC(c2ccccc2)(c2ccccc2)CO1` (stereo not drawn) [compound 6, N-(4-(4-(2,3-Dichlorophenyl)piperazin-1-yl)butyl)-5,5-diphenyl-1,4-dioxane-2-carboxamide], for which the Ki in test [1] was 0.0546 ± 0.0073 µM. Besides, in test [2], the IC50 was 0.0085 µM; the “% inhib., D2 mitogenesis assay” value is “(95.2) %”; the “functional behavior at D2R” value was “efficacious D2R and 5-HT2AR antagonists with high and low potency, respectively”. The Ki in test [3] amounted to 0.0287 ± 0.0054 µM.
For `O=C(NCCCCN1CCN(c2cccc(Cl)c2Cl)CC1)C1COc2ccccc2O1` (stereo not drawn) [compound 9, N-(4-(4-(2,3-Dichlorophenyl)piperazin-1-yl)butyl)-2,3-dihydrobenzo[b][1,4]dioxine-2-carboxamide], the inhibition constant (Ki) in test [1] turned out to be 0.0747 ± 0.0245 µM. Also, in test [2], the IC50 amounted to 0.04 µM; the “% inhib., D2 mitogenesis assay” value is on record as “(94.4) %”; the “functional behavior at D2R” value is “efficacious D2R and 5-HT2AR antagonists with high and low potency, respectively”. In test [3], the Ki was 0.0464 ± 0.0059 µM.
